Laboratory results: patent US20180290977A1, “KDM4 INHIBITORS” (Albert-Ludwigs-University Freiburg, priority 2017, published 2018)
Where two headings read alike, the source gives them in different places.

Columns and labels:
[1] = target: T1, KDM2A (Homo sapiens, UniProt Q9Y2K7); test: KDM demethylase inhibition (IC50); assay type: biochemical
T1 sequence (Q9Y2K7 1-1162): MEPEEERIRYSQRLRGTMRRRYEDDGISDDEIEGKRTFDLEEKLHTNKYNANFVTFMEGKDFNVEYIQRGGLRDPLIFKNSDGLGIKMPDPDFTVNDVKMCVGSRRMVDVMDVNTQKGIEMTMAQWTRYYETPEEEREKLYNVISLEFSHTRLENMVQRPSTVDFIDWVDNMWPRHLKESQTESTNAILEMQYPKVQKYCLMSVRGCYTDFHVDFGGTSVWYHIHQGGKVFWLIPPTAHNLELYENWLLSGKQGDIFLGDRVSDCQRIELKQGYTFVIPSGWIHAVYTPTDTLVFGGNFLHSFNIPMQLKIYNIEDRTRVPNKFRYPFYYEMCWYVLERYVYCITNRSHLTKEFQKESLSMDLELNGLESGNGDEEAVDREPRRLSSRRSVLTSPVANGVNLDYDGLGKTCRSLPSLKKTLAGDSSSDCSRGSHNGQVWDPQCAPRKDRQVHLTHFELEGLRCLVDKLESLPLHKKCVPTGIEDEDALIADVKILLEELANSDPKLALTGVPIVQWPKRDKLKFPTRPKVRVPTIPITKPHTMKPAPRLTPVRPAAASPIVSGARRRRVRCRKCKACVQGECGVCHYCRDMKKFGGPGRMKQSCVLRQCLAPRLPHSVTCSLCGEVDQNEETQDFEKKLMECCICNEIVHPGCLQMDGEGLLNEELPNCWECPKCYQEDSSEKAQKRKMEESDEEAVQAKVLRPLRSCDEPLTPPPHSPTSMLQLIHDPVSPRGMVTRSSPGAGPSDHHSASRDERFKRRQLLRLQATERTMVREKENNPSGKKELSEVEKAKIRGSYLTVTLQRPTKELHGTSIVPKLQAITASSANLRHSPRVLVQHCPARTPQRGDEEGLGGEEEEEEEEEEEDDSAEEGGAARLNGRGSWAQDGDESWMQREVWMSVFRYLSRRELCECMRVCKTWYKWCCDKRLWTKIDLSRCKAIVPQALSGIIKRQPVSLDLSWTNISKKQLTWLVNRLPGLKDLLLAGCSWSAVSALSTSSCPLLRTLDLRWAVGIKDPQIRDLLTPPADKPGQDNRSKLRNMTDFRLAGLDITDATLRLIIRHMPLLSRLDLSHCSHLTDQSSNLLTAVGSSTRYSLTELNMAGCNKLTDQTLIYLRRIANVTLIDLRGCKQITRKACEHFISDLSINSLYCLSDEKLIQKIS

[2] = target: T2, KDM4D (Homo sapiens, UniProt Q6B0I6); test: KDM demethylase inhibition (IC50); assay type: biochemical
T2 sequence (Q6B0I6 1-523): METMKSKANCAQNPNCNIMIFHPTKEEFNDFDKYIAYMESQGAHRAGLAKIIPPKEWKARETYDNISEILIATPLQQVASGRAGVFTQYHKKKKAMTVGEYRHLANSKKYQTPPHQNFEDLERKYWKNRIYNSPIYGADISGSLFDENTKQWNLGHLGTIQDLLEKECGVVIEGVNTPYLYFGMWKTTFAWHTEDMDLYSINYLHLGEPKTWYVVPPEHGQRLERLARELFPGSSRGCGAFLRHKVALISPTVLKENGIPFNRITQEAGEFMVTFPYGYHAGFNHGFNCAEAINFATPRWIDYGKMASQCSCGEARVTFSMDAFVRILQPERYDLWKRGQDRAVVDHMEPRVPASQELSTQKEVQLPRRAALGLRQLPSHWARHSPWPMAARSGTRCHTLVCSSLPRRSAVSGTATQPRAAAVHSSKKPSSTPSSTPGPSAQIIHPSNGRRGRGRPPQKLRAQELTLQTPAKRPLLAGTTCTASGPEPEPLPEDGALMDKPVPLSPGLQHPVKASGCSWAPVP

With `CN(c1ccccc1)c1ccc2c(c1)CCC[C@H]2CNc1cnccc1C(=O)O` [Compound I, 3-({[(1R)-6-[methyl(phenyl)amino]-1,2,3,4-tetrahydronaphthalen-1-yl]methyl}amino)pyridine-4-carboxylic Acid] the IC50 [1] was > 10000 nM, the IC50 ([2]; read-out: Compound I IC50) was 104 nM and the IC50 ([2]; read-out: IC50, demethylase activity) was < 105 nM.
